# Source: ChEMBL document CHEMBL5725356, “Anti-fibrotic pyridinones” (2017)
# Test: ET-1 Assay: Fibroblasts (primary human lung and dermal, HFL-1, 3T3 etc) are seeded in 96-well plates at ~15000 cells/well and serum starved for 0-48 hours. After media exchange, compounds serially diluted in DMSO are added to the cells. After a brief incubation of ~30 min, stimulants (TGFb, serum, LPA etc) are added followed by further incubation for 16-48 hours. Media is then harvested and stored frozen in plate format for later endothelin-1 (ET-1) determination by ELISA. Toxicity measurements are made using the ATPlite kit (Perkin-Elmer). ET-1 is quantified using an ELISA kit (R&D Systems). The amount of ET-1 produced in the assay wells are back-calculated using the ELISA standard. The ability of a compound to inhibit ET-1 production is typically analyzed by fitting dose-response curves to a 4-parameter logistic function to obtain an EC50 value.
# Conditions: HFL1
row,SMILES,EC50
1,CC(C)Oc1ccc(-n2cc(-c3cccc(Cl)c3)ccc2=O)cc1,< 50 µM
2,CN1CCC(Oc2cc(=O)n(-c3ccc(OC(F)(F)F)cc3)cc2-c2ccc(F)cc2)CC1,< 50 µM
3,O=c1ccc(-c2cncnc2)cn1-c1ccccc1F,> 200 µM
4,Cc1cc(=O)n(-c2ccc(OC(F)(F)F)cc2)cc1-c1c(C)nn(C)c1C,in the range around 125 µM
5,Cc1cc(=O)n(-c2ccccc2)cc1-c1ccccc1,in the range around 125 µM
6,Cn1cc(-c2cn(-c3ccc(OC(F)(F)F)cc3)c(=O)c3c2ccn3C2CC2)cn1,< 50 µM
7,Cc1cc(=O)n(-c2ccc3c(c2)OCO3)cc1-c1ccc(F)cc1,> 200 µM
8,Cn1cc(-c2cn(-c3ccc(OC(F)(F)F)cc3)c(=O)cc2OC2CCS(=O)(=O)CC2)cn1,in the range around 125 µM
9,Cc1ccc(=S)n(-c2ccc(OC(F)(F)F)cc2)c1,in the range around 125 µM
10,Cc1cc(C)c(=O)n(-c2ccccc2)c1,> 200 µM
11,CC(C)N1N=NC2C(=O)N(c3ccc(OC(F)(F)F)cc3)C=C(c3cnn(C)c3)C21 (stereo not drawn),in the range around 125 µM
12,CCn1nc2c(-c3cnn(C)c3)cn(-c3ccc(OCCOC)cc3)c(=O)c2n1,in the range around 125 µM
13,CCOc1ccc(-n2cc(-c3ccc(F)cc3)c3nccnc3c2=O)c(C)c1,> 200 µM
14,CCn1nnc2c(-c3cnn(C)c3)cn(-c3ccc(OC(F)(F)F)cc3)c(=O)c21,< 50 µM
15,N#Cc1ccc(-n2cc(-c3cn[nH]c3)c3cc[nH]c3c2=O)cc1,in the range around 125 µM
16,O=c1ccc(-c2cn[nH]c2)cn1-c1ccc(Cl)cc1,> 200 µM
17,Cc1cc(=O)n(-c2ccc(OC(F)(F)F)cc2)cc1-c1ccc(F)cc1,> 200 µM
18,Cn1cc(-c2cn(-c3ccc(OC(F)(F)F)cc3)c(=O)cc2Oc2ccc(F)cc2)cn1,< 50 µM
19,COc1cccc(-n2cc(C(F)(F)F)ccc2=O)c1,> 200 µM
20,Cn1cc(-c2cn(-c3ccccc3)c(=O)c3c2CCCC3)cn1,< 50 µM
21,Cn1cc(-c2cn(-c3ccc(OC(F)(F)F)cc3)c(=O)cc2NC(=O)OCc2ccccc2)cn1,in the range around 125 µM
22,Cc1cc(=O)n(-c2ccc(OC(F)(F)F)cc2)cc1-c1cccc2c1OC(F)(F)O2,< 50 µM
23,CCn1ccc2c(-c3ccc(F)cc3)cn(-c3ccc(OC(F)(F)F)cc3)c(=O)c21,< 50 µM
24,CCOc1ccc(CNc2cc(=O)n(-c3ccc(OCC)cc3C)cc2-c2cnn(C)c2)c(C)c1,< 50 µM
25,Cn1cc(-c2cn(-c3ccc(OC(F)(F)F)cc3)c(=O)c3scnc23)cn1,< 50 µM
26,COc1cccc(-n2cc(-c3c(C)n[nH]c3C)ccc2=O)c1,in the range around 125 µM

row,SMILES,EC50
1,Cn1ccc2c(-c3cn[nH]c3)cn(-c3ccc(Cl)cc3)c(=O)c21,< 50 µM
2,Cn1cc(-c2cn(-c3ccc(OC(F)(F)F)cc3)c(=O)cc2N2CCCCC2)cn1,> 200 µM
3,N#Cc1cc(=O)n(-c2ccc(OC(F)(F)F)cc2)cc1-c1ccc(F)cc1,> 200 µM
4,CCOc1ccc(-n2cc(-c3cnn(C)c3)c(OCCOC(C)C)cc2=O)c(C)c1,in the range around 125 µM
5,O=c1cc(NCc2ccccc2)c(-c2ccc(F)cc2)cn1-c1ccc(OC(F)(F)F)cc1,> 200 µM
6,CCn1ccc2c(-c3cnn(C)c3)c[nH]c(=O)c21,< 50 µM
7,Cc1cc(=O)n(-c2ccccc2F)cc1-c1ccccc1,in the range around 125 µM
8,Cn1cc(-c2ccc(=O)n(-c3ccccc3)n2)cn1,> 200 µM
9,CC(C)Oc1ccc(-n2cc(Br)ccc2=O)cc1,> 200 µM
10,CNC(=O)c1cccc(-n2cc(-c3ccc(F)cc3)c(C)cc2=O)c1,in the range around 125 µM
11,Cc1ccc(=O)n(-c2ccccc2)n1,> 200 µM
12,Cc1cc(=O)n(-c2ccc(OC(F)(F)F)cc2)cc1-c1ccc2ocnc2c1,< 50 µM
13,O=c1ncc(-c2ccc(F)cc2)cn1-c1ccccc1,in the range around 125 µM
14,O=c1ccc(-c2cccc(Cl)c2)cn1-c1cccc(C(F)(F)F)c1,< 50 µM
15,Cn1cc(C2=CN(c3ccc(OC(F)(F)F)cc3)CC=C2Oc2ccc(C(N)=O)cc2)cn1,< 50 µM
16,CC(C)c1cc(=O)n(-c2ccc(OC(F)(F)F)cc2)cc1-c1ccc(F)cc1,in the range around 125 µM
17,CCOc1ccc(-n2cc(-c3cn[nH]c3)c3ccn(C)c3c2=O)c(C)c1,< 50 µM
18,CCOc1ccc(Oc2cc(=O)n(-c3ccc(OC(F)(F)F)cc3)cc2-c2cnn(C)c2)cc1C#N,< 50 µM
19,O=c1cc(OCCN2CCOCC2)c(-c2ccc(F)cc2)cn1-c1ccc(OC(F)(F)F)cc1,in the range around 125 µM
20,O=c1c2ncn(Cc3ccccc3)c2c(-c2ccc(F)cc2)cn1-c1ccc(OC(F)(F)F)cc1,> 200 µM
21,Cc1cc(=O)n(-c2ccccc2F)cc1-c1cnn(C)c1,> 200 µM
22,COc1ccc(-c2ccc(=O)n(-c3ccccc3F)c2)cc1,> 200 µM
23,Cc1cc(-c2ccc(F)cc2)cn(-c2ccccc2)c1=O,< 50 µM
24,Cc1cc(=O)n(-c2ccc3scnc3c2)cc1-c1cnn(C)c1,> 200 µM
25,C[C@H]1CCC(=O)N(c2ccccc2)C1,> 200 µM
26,COc1cccc(-n2cc(-c3cn[nH]c3)ccc2=O)c1,> 200 µM

row,SMILES,EC50
1,Cn1cc(-c2cn(-c3ccc(OC(F)(F)F)cc3)c(=O)cc2C(F)(F)F)cn1,> 200 µM
2,Cc1cc(=O)n(-c2ccc3c(c2)OCCO3)cc1-c1cnn(C)c1,> 200 µM
3,Cc1cc(=O)n(-c2ccc(OC(C)C)cc2C)cc1-c1cnn(C)c1,> 200 µM
4,O=c1ccc(Br)cn1-c1ccc(Cl)cc1,> 200 µM
5,Cn1ccc2c(-c3cn[nH]c3)cn(-c3ccc(C#N)cc3)c(=O)c21,< 50 µM
6,Cc1cc(=O)n(-c2ccccc2F)cc1-c1ccc(F)cc1,in the range around 125 µM
7,Cn1cc(-c2cn(-c3ccc(OC(F)(F)F)cc3)c(=O)cc2Oc2cc(Cl)cc(C#N)c2)cn1,> 200 µM
8,Cn1cc(-c2cn(-c3ccc(OC(F)(F)F)cc3)c(=O)c3cccnc23)cn1,< 50 µM
9,Cc1cc(=O)n(-c2ccc(OC(F)(F)F)cc2)cc1-c1cccc2c1N(C)C(=O)CO2,> 200 µM
10,Cn1cc(-c2cn(-c3ccc(OC(F)(F)F)cc3)c(=O)cc2Cl)cn1,> 200 µM
11,Cc1ccc(=S)n(-c2ccc(F)cc2)c1,> 200 µM
12,CCOc1ccc(Oc2cc(=O)n(-c3ccc(OC(F)(F)F)cc3)cc2-c2cnn(C)c2)cc1C,> 200 µM
13,O=c1ccc(C2CCC2)cn1-c1ccccc1,> 200 µM
14,COCCn1ccc2c(-c3cnn(C)c3)cn(-c3ccc(OC(F)(F)F)cc3)c(=O)c21,< 50 µM
15,Cc1cc(=O)n(-c2ccccc2)cc1C,> 200 µM
16,Cc1cc(=O)n(-c2cccc(OC(F)(F)F)c2)cc1-c1ccccc1,< 50 µM
17,O=c1ccc(C2CCCC2)cn1-c1ccccc1,in the range around 125 µM
18,O=c1cc(OC2CCS(=O)(=O)CC2)c(-c2ccc(F)cc2)cn1-c1ccc(OC(F)(F)F)cc1,< 50 µM
19,CCOc1ccc(-n2cc(-c3cnn(C)c3)c(NCc3ccc(F)cc3F)cc2=O)c(C)c1,< 50 µM
20,O=c1ccc(Br)cn1-c1cccc(C(F)(F)F)c1,> 200 µM
21,COCCOc1ccc(Oc2cc(=O)n(-c3ccc(OC(F)(F)F)cc3)cc2-c2cnn(C)c2)cc1,in the range around 125 µM
22,Cn1cc(-c2cn(-c3ccc(OC(F)(F)F)cc3)c(=O)cc2Oc2cccc(Cl)c2)cn1,< 50 µM
23,O=c1c2c(c(-c3ccc(F)cc3)cn1-c1ccc(OC(F)(F)F)cc1)CCCC2,> 200 µM
24,Cc1cc(=O)n(-c2cccc3c2OCCO3)cc1-c1cnn(C)c1,in the range around 125 µM
25,Cc1cc(=O)n(-c2ccc(OC(F)(F)F)cc2)cc1-c1ccccc1F,< 50 µM
26,CCOc1ccc(-n2cc(-c3ccnnc3)c3nn(CC)nc3c2=O)c(C)c1,< 50 µM

row,SMILES,EC50
1,Cn1cc(-c2cn(-c3ccc(OC(F)(F)F)cc3)c(=O)c3c2NCCC3)cn1,> 200 µM
2,Cc1cc(=O)n(-c2ccc(OC(F)(F)F)cc2)cc1-c1ccc2nccn2c1,in the range around 125 µM
3,Cc1ccc(=O)n(-c2ccccc2F)c1,> 200 µM
4,Cc1ccccc1-n1cc(-c2cnn(C)c2)ccc1=O,> 200 µM
5,Cn1cc(-c2cn(-c3ccc(C#N)cc3)c(=O)c3nccnc23)cn1,> 200 µM
6,COCCOc1ccc(-n2cc(-c3cn[nH]c3)c(C)cc2=O)cc1,> 200 µM
7,O=c1ccc(-c2ccc(F)cc2)cn1-c1ccccc1F,in the range around 125 µM
8,Cc1n[nH]c(C)c1-c1ccc(=O)n(-c2ccc(OC(F)(F)F)cc2)c1,in the range around 125 µM
9,O=c1cc(OCCN2CCCC2)c(-c2ccc(F)cc2)cn1-c1ccc(OC(F)(F)F)cc1,< 50 µM
10,C[C@@H]1CCC(=O)N(c2ccccc2)C1,> 200 µM
11,COc1ccc(-c2ccc(=O)n(-c3ccccc3Cl)c2)cc1,in the range around 125 µM
12,O=c1c2nccnc2c(-c2cnn(CCO)c2)cn1-c1ccc(OC(F)(F)F)cc1,in the range around 125 µM
13,Cc1cc(=O)n(-c2ccc(OC(F)(F)F)cc2)cc1-n1ccnc1,> 200 µM
14,O=c1ccc(-c2ccccc2)cn1-c1ccc(F)cc1,in the range around 125 µM
15,Cn1cc(-c2c[nH]c(=O)cc2NCc2ncccn2)cn1,< 50 µM
16,Cc1cc(=O)n(-c2cccc(NC(N)=O)c2)cc1-c1ccc(F)cc1,< 50 µM
17,CCOC(=O)n1cc(-c2ccc(=O)n(-c3ccccc3)c2)cn1,< 50 µM
18,Cc1ccc(=O)n(-c2cc(F)c(F)c(F)c2)c1,> 200 µM
19,Cc1cn(C)c2c(=O)n(-c3ccc(OC(F)(F)F)cc3)cc(-c3ccc(F)cc3)c12,< 50 µM
20,CCn1nnc2c(=O)[nH]cc(-c3cnn(C)c3)c21,> 200 µM
21,Cn1cc(-c2cn(-c3ccc(OC(F)(F)F)cc3)c(=O)cc2NCc2ncccn2)cn1,> 200 µM
22,O=c1ccc(-c2ccccc2)cn1-c1cccc(F)c1,> 200 µM
23,Cn1cc(-c2cn(-c3ccc(OC(F)(F)F)cc3)c(=O)cc2NCc2ccc(Cl)cc2Cl)cn1,< 50 µM
24,Cc1cc(=O)n(-c2ccc(OC(F)(F)F)cc2)cc1-c1cccc2c1OC(C)(C)O2,in the range around 125 µM
25,COc1ccc(-c2ccc(=O)n(-c3cncnc3)c2)cc1,> 200 µM
